From patent US9776979B2, “EBI2 modulators” (Sanford-Burnham Medical Research Institute, priority 2013, dated 2017)

molecular target: EBI2 (Homo sapiens, UniProt P32249); experiment: Cell-based luminescent assay (EBI2 modulation); settings: cell-based luminescence; 7a,25-OHC final assay concentration 80 nM; 60 minutes incubation; read-out: IC50
Experimental: Cell-Based Luminescent Assay
To assess EBI2 modulation, the compounds described herein were assayed in the following cell-based luminescent assay:
1) Plated 600 cells/well in 4 uL of assay media into columns 1-48 of a 1536-well assay plate, using a liquid dispenser.
2) Centrifuged plates at 1000 rpm for 1 minute and covered with lids.
3) Incubated overnight at 37° C., 100% relative humidity, 5% CO2.
1) Centrifuged compound plates containing compounds described herein at 500 rpm for 1 minute.
2) Added compounds into assay plate col 5-48 to final concentration 4-5 uM. Added matching amount of DMSO to positive and negative control wells in columns 1-4.
3) Dispensed 2 ul/well of assay media to columns 1-2 for the positive control wells.
4) Added 2 ul/well of 400 nM 7a,25-OHC (final assay concentration=80 nM) in assay media to columns 3-48 for the negative control and test compound wells.
5) Centrifuged plates at 1000 rpm for 1 minute and re-lid plates.
6) Incubated plates at 37° C., 100% relative humidity, 5% CO2 for 60 minutes.
7) Following 60 minute incubation, delivered 2.5 uL of Detection Reagent solution to each assay plate (Columns 1-48) using a liquid handler.
8) Centrifuged plates at 2000 rpm for 2 minutes and re-lid plates.
9) Incubated plates for 60 minutes at 25 degrees in the dark.
10) Read plates using the Viewlux, Envision or other suitable plate reader using a luminescence detection.
The experimental values were normalized by the difference between values from neutral and stimulator control wells in each plate. Then normalized data was corrected to remove systematic plate patterns due to artifacts such as dispensing tip issues etc.

Chain of EBI2 (P32249 whole entry): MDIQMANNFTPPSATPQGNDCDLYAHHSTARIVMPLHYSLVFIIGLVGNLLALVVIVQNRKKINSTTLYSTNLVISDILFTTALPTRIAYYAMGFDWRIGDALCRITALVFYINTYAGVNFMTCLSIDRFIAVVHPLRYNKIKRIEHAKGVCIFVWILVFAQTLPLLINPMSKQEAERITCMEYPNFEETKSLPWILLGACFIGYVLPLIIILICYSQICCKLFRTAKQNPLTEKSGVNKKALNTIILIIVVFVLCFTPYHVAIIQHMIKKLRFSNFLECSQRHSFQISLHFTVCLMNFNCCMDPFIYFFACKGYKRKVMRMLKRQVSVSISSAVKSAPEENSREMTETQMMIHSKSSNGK

IC50	Substance
< 100 nM	1-(4-{[4-fluoro-2-(trifluoromethyl)phenyl]carbonyl}piperazinyl)-3-[4-(trifluoromethyl)phenyl]prop-2-yn-1-one [Compound C325]
< 100 nM	1-(4-{[4-fluoro-2-(trifluoromethyl)phenyl]carbonyl}piperazinyl)-3-phenylprop-2-yn-1-one [Compound C321]
100 to 500 nM	1-(4-{[4-fluoro-2-(trifluoromethyl)phenyl]methyl}piperazinyl)-3-(4-methylphenyl)prop-2-yn-1-one [Compound C459]
100 to 500 nM	1-(4-{[4-fluoro-2-(trifluoromethyl)phenyl]methyl}piperazinyl)-3-[4-(trifluoromethyl)phenyl]prop-2-yn-1-one [Compound C432]
< 100 nM	1-[4-(diphenylmethyl)piperazinyl]-3-(4-bromo-2-fluorophenyl)prop-2-yn-1-one [Compound C107]
< 100 nM	1-[4-(diphenylmethyl)piperazinyl]-3-(4-bromophenyl)prop-2-yn-1-one [Compound C50]
100 to 500 nM	1-[4-(diphenylmethyl)piperazinyl]-3-[2-(trifluoromethyl)phenyl]prop-2-yn-1-one [Compound C443]
< 100 nM	1-{4-[(4-bromophenyl)carbonyl]piperazinyl}-3-(4-chlorophenyl)prop-2-yn-1-one [Compound C19]
< 100 nM	1-{4-[(4-bromophenyl)methyl]piperazinyl}-3-(4-chlorophenyl)prop-2-yn-1-one [Compound C383]
< 100 nM	1-{4-[(4-fluorophenyl)carbonyl]piperazinyl}-3-[2-(trifluoromethyl)phenyl]prop-2-yn-1-one [Compound C393]
100 to 500 nM	1-{4-[(4-fluorophenyl)methyl]piperazinyl}-3-[2-(trifluoromethyl)phenyl]prop-2-yn-1-one [Compound C438]
< 100 nM	1-{4-[(4-methoxyphenyl)carbonyl]piperazinyl}-3-[2-(trifluoromethyl)phenyl]prop-2-yn-1-one [Compound C373]
< 100 nM	1-{4-[(4-methoxyphenyl)methyl]piperazinyl}-3-[4-(trifluoromethyl)phenyl]prop-2-yn-1-one [Compound C352]
< 100 nM	3-(2,3-dichlorophenyl)-1-[4-(diphenylmethyl)piperazinyl]prop-2-yn-1-one [Compound C25]
< 100 nM	3-(2,3-dichlorophenyl)-1-{4-[(4-chlorophenyl)carbonyl]piperazinyl}prop-2-yn-1-one [Compound C30]
< 100 nM	3-(2,3-dichlorophenyl)-1-{4-[(4-chlorophenyl)methyl]piperazinyl}prop-2-yn-1-one [Compound C275]
100 to 500 nM	3-(2,4-difluorophenyl)-1-{4-[(4-fluorophenyl)carbonyl]piperazinyl}prop-2-yn-1-one [Compound C424]
< 100 nM	3-(3,4-dichlorophenyl)-1-[4-(diphenylmethyl)piperazinyl]prop-2-yn-1-one [Compound C77]
< 100 nM	3-(3,4-dichlorophenyl)-1-{4-[(4-chlorophenyl)carbonyl]piperazinyl}prop-2-yn-1-one [Compound C51]
100 to 500 nM	3-(3,4-dichlorophenyl)-1-{4-[(4-chlorophenyl)methyl]piperazinyl}prop-2-yn-1-one [Compound C291]
< 100 nM	3-(3,4-dichlorophenyl)-1-{4-[(4-fluorophenyl)carbonyl]piperazinyl}prop-2-yn-1-one [Compound C93]
100 to 500 nM	3-(3,5-difluorophenyl)-1-(4-{[4-(trifluoromethyl)phenyl]carbonyl}piperazinyl)prop-2-yn-1-one [Compound C398]
100 to 500 nM	3-(3,5-difluorophenyl)-1-(4-{[4-fluoro-2-(trifluoromethyl)phenyl]methyl}piperazinyl)prop-2-yn-1-one [Compound C422]

IC50	Substance
100 to 500 nM	3-(3,5-difluorophenyl)-1-[4-(diphenylmethyl)piperazinyl]prop-2-yn-1-one [Compound C419]
100 to 500 nM	3-(3,5-difluorophenyl)-1-{4-[(4-fluorophenyl)carbonyl]piperazinyl}prop-2-yn-1-one [Compound C410]
100 to 500 nM	3-(3,5-difluorophenyl)-1-{4-[(4-methoxyphenyl)carbonyl]piperazinyl}prop-2-yn-1-one [Compound C467]
< 100 nM	3-(4-bromophenyl)-1-{4-[(4-bromophenyl)methyl]piperazinyl}prop-2-yn-1-one [Compound C364]
< 100 nM	3-(4-bromophenyl)-1-{4-[(4-chlorophenyl)carbonyl]piperazinyl}prop-2-yn-1-one [Compound C55]
< 100 nM	3-(4-bromophenyl)-1-{4-[(4-chlorophenyl)methyl]piperazinyl}prop-2-yn-1-one [Compound C342]
100 to 500 nM	3-(4-fluorophenyl)-1-{4-[(4-fluorophenyl)methyl]piperazinyl}prop-2-yn-1-one [Compound C446]
< 100 nM	3-(4-methylphenyl)-1-(4-{[4-(trifluoromethyl)phenyl]methyl}piperazinyl)prop-2-yn-1-one [Compound C346]
100 to 500 nM	3-[4-(trifluoromethyl)phenyl]-1-(4-{[4-(trifluoromethyl)phenyl]methyl}piperazinyl)prop-2-yn-1-one [Compound C411]
< 100 nM	4,6-dichloroindol-2-yl 4-(diphenylmethyl)piperazinyl ketone [Compound C250]
100 to 500 nM	4-(diphenylmethyl)piperazinyl 1-methylindol-5-yl ketone [Compound C433]
< 100 nM	4-(diphenylmethyl)piperazinyl 2-naphthyl ketone [Compound C101]
< 100 nM	4-(diphenylmethyl)piperazinyl 5-bromobenzo[b]thiophen-2-yl ketone [Compound C207]
< 100 nM	4-(diphenylmethyl)piperazinyl 5-bromoindol-2-yl ketone [Compound C43]
< 100 nM	4-(diphenylmethyl)piperazinyl 5-chlorobenzo[b]thiophen-2-yl ketone [Compound C36]
< 100 nM	4-(diphenylmethyl)piperazinyl 5-hydroxyindol-2-yl ketone [Compound C348]
< 100 nM	4-(diphenylmethyl)piperazinyl 6-bromoindol-2-yl ketone [Compound C108]
< 100 nM	4-(diphenylmethyl)piperazinyl 6-fluoro(3-quinolyl) ketone [Compound C227]
< 100 nM	4-(diphenylmethyl)piperazinyl 8-fluoro(3-quinolyl) ketone [Compound C386]
< 100 nM	4-(diphenylmethyl)piperazinyl indol-6-yl ketone [Compound C370]
100 to 500 nM	4-(diphenylmethyl)piperazinyl pyrrolo[2,3-c]pyridin-2-yl ketone [Compound C431]
100 to 500 nM	4-[(2,4-difluorophenyl)methyl]piperazinyl 5-(trifluoromethyl)indol-2-yl ketone [Compound C412]
